Data from US8916551B2, “Heterocyclic compound and use thereof” (Takeda Pharmaceutical Company Limited, priority 2010, dated 2014).

Experiments:
[1] = tested on: methamphetamine (MAP)-induced hyperlocomotion in mice; assay: Inhibition of methamphetamine (MAP)-induced hyperlocomotion; format: in vivo; details: male ICR mice; compound 10 mg/kg p.o. 60 min before MAP 2 mg/kg s.c.; counts 120 min after MAP
Protocol: Male ICR mice were supplied by CLEA Japan, Inc (Japan). After arrival to the vivarium, animals were allowed a minimum of 1 week for acclimation. They were housed under a 12:12-h light/dark cycle in a temperature- and humidity-controlled laboratory and allowed food and water ad libitum.
A test compound was suspended in 0.5% methylcellulose in distilled water and orally administered (p.o.). Methamphetamine (Dainippon Sumitomo Pharma Co., Ltd.) was dissolved in saline and subcutaneously administered (s.c.). All drugs were dosed in a volume of 10 mL/kg body weight for mice.
The widely used animal models of psychosis have been the measurement of the extent of hyperlocomotion induced by psychostimulants (e.g., amphetamine, cocaine, methamphetamine, MK-801 and phencyclidine) in rodents (Psychopharmacology 1999, vol. 145: 237-250). 4 compounds (A, B, C, D) were tested for its ability to antagonize MAP-induced hyperlocomotion in mice. Male ICR mice were habituated in the locomotor chambers with infrared sensors (BrainScienceldea Co., Ltd. Japan) to the experiment. After the habituation, animals were treated with either vehicle or the compounds (10 mg/kg, p.o.), and MAP (2 mg/kg, s.c.) was administrated 60 min later. Locomotion activities were measured, and accumulated counts (120 min after administration of MAP) were calculated in each treatment group. All data were represented as means plus the standard errors of the means (n=3-9) and analyzed using Student's t-test with significance set at **P<0.01 and ***P<0.001 or Welch's t-test with significance set at ^$P<0.05, ^$$P<0.01 and ^$$$P<0.001.

[2] = molecular target: T1, AMPA receptor (human GluR1 flip/stargazin expressed in CHO-K1 cells) (Homo sapiens, UniProt P42261); assay: AMPA receptor function enhancing activity using calcium influx as index; format: cell-based; details: test compound 30 μM with 3 mM glutamic acid, change in fluorescence level in 3 min, 100% = 3 mM glutamic acid + 300 μM cyclothiazide, 0% = 3 mM glutamic acid only
T1 construct: expressed in transfected cells; host or cells: CHO-K1
In short: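 CHO-K1 clone stably co-expressing human GluR1 flip and stargazin, loaded with Calcium 4 dye plus probenecid. Compound at 30 μM was added with glutamate (3 mM final) and fluorescence change followed over 3 min. Activity is expressed as % of the 3 mM glutamate plus 300 μM cyclothiazide response, with glutamate alone as 0%.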

T1 sequence (P42261 19-906 isoform P42261-2 limits assumed): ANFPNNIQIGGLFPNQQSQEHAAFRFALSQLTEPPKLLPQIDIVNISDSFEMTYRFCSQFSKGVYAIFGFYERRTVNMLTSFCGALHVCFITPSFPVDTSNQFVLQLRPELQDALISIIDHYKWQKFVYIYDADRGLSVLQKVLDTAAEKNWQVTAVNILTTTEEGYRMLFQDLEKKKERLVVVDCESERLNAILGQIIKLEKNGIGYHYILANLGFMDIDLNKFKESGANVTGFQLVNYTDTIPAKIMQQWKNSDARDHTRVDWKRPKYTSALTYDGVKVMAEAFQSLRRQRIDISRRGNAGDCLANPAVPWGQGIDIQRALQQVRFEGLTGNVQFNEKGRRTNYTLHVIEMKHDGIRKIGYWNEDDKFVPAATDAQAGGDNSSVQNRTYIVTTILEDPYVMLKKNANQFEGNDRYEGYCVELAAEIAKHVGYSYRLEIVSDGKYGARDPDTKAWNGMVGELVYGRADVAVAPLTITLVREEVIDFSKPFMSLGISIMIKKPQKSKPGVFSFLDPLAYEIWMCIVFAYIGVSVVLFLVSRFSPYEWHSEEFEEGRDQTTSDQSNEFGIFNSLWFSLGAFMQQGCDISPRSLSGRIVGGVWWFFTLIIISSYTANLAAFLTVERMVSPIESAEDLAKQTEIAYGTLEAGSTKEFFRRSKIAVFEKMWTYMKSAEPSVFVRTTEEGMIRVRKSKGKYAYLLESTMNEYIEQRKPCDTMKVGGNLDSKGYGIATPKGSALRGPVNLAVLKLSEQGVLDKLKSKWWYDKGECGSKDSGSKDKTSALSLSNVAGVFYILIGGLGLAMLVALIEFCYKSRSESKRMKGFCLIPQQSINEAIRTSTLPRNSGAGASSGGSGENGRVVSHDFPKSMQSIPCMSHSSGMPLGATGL
T1 sequence (Q9Y698 whole entry partner): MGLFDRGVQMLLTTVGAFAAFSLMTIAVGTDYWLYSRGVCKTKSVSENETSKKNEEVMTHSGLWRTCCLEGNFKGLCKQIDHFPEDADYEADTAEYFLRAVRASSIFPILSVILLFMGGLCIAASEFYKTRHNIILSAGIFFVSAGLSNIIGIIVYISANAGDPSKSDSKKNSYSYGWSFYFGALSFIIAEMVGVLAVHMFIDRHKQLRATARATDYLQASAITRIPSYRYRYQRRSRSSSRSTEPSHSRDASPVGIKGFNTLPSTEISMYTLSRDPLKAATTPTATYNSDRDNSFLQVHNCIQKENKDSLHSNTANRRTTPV

Compound	inhibition of MAP-induced hyperlocomotion (accumulated locomotion counts 0-120 min) [1]	activity (%) [2]	melting point
O=S1(=O)CCN2C=CC=C(c3ccc(Oc4ccccc4)cc3)C2=N1 [A, 9-(4-phenoxyphenyl)-3,4-dihydropyrido[2,1-c][1,2,4]thiadiazine 2,2-dioxide]	significant inhibition	–	–
Cc1ccc(Oc2ccc(C3=CC=CN4CCS(=O)(=O)N=C34)cc2)cc1 [B, 9-[4-(4-methylphenoxy)phenyl]-3,4-dihydropyrido[2,1-c][1,2,4]thiadiazine 2,2-dioxide]	significant inhibition	–	–
CC1=CN2CCS(=O)(=O)N=C2C(c2ccc(OC3CCCCC3)cc2)=N1 [C, 9-[4-(cyclohexyloxy)phenyl]-7-methyl-3,4-dihydropyrazino[2,1-c][1,2,4]thiadiazine 2,2-dioxide]	significant inhibition	–	–
O=S1(=O)CCN2C=CC=C(c3ccc(OC4CCCCC4)cc3)C2=N1 [D, 9-[4-(cyclohexyloxy)phenyl]-3,4-dihydropyrido[2,1-c][1,2,4]thiadiazine 2,2-dioxide]	significant inhibition	–	–
Cc1ccc(Oc2ccc([C@@H]3CCCN4CCS(=O)(=O)N=C34)cc2)cc1C [Example 216, (9S)-9-[4-(3,4-dimethylphenoxy)phenyl]-3,4,6,7,8,9-hexahydropyrido[2,1-c][1,2,4]thiadiazine 2,2-dioxide]	–	71%	170 to 171 °C
CCc1ccc(Oc2ccc([C@@H]3CCCN4CCS(=O)(=O)N=C34)cc2)cc1 [Example 218, (9S)-9-[4-(4-ethylphenoxy)phenyl]-3,4,6,7,8,9-hexahydropyrido[2,1-c][1,2,4]thiadiazine 2,2-dioxide]	–	74%	156 to 157 °C
COc1cccc(Oc2ccc([C@@H]3CCCN4CCS(=O)(=O)N=C34)cc2)c1 [Example 219, (9S)-9-[4-(3-methoxyphenoxy)phenyl]-3,4,6,7,8,9-hexahydropyrido[2,1-c][1,2,4]thiadiazine 2,2-dioxide]	–	83%	139 to 140 °C
O=S1(=O)CCN2CCC[C@@H](c3ccc(Oc4cc(F)c(F)c(F)c4)cc3)C2=N1 [Example 227, (9S)-9-[4-(3,4,5-trifluorophenoxy)phenyl]-3,4,6,7,8,9-hexahydropyrido[2,1-c][1,2,4]thiadiazine 2,2-dioxide]	–	68%	180 to 181 °C
O=S1(=O)CCN2CCCC(c3ccc(Oc4ccc(C(F)(F)F)cc4)cc3)C2=N1 (stereo not shown) [Example 232, 9-{4-[4-(trifluoromethyl)phenoxy]phenyl}-3,4,6,7,8,9-hexahydropyrido[2,1-c][1,2,4]thiadiazine 2,2-dioxide]	–	60%	174 to 176 °C
Cc1cc(F)cc(Oc2ccc([C@@H]3CCCN4CCS(=O)(=O)N=C34)cc2)c1 [Example 236, (9S)-9-[4-(3-fluoro-5-methylphenoxy)phenyl]-3,4,6,7,8,9-hexahydropyrido[2,1-c][1,2,4]thiadiazine 2,2-dioxide]	–	74%	158 to 159 °C
